system: immature embryos of modified morning glory "aosakaikaryuubaseisaisakibotan"; test: Embryoid body induction from cultured immature embryos with different phytohormones; assay type: cell-based, Ipomoea nil; settings: immature embryos cultured as in Example 1A (MS medium, 60 g/l sucrose, 25° C., 2000 lux; NAA 3 mg/l), phytohormone varied
Method: Immature embryos were obtained from a parent tree of modified morning glory “aosakaikaryuubaseisaisakibotan”. Each individual immature embryo was separately cultured on an MS medium containing 3 mg/l of NAA and 60 g/l of sucrose at 25° C. under 2000 lux, to thereby obtain an embryoid body from the immature embryo. Each embryoid body obtained from different immature embryo was separately cultured as a discrete strain. Subculturing was repeated using the same medium at an interval of 4 weeks.
In substantially the same manner as in Example 1A, immature embryos were cultured except that phytohormone other than NAA, such as 4-fluorophenoxyacetic acid, 2,4-dichlorophenoxyacetic acid and picloram were used. As is apparent from a result shown in Table 4, in the case of phytohormone other than NAA, no embryoid bodies were produced, and thus mass proliferation was not attained.

Structure (SMILES) | Number of embryoid bodies formed per immature embryo
O=C(O)Cc1cccc2ccccc12 [NAA] | 10
Nc1c(Cl)c(Cl)nc(C(=O)O)c1Cl [Picloram, picloram] | 0
O=C(O)COc1ccc(F)cc1 [4-fluorophenoxyacetic acid] | 0
O=C(O)COc1ccc(Cl)cc1Cl [2,4-dichlorophenoxyacetic acid] | 0

— patent publication US20060282913A1, “Method of efficiently growing modified morning glory plant” (SKILL/VISION CO., LTD., priority 2003, published 2006)
